From patent US20040171553A1, “Peptides fragments of colostrinin and their use” (priority 2000, published 2004)
“And” between values parts separate entries of the source, which are not always exact repeats. Equal values may be shown once.

How the values were obtained:
rabbits = experiment: Serum antibody titre by ELISA after immunisation of rabbits with the KHL-conjugated synthetic peptide; type: in vivo, rabbit; conditions: ELISA against corresponding synthetic peptide antigen; for Titre: (Serum Dilution) Post Immunization R1: rabbit R1, after the 10 week immunisation protocol; for Titre: (Serum Dilution) Pre Immunization R1: rabbit R1, before immunisation
Protocol: To each N-terminal end of the synthetic peptides, L-cysteine was attached, and the peptide was formed into a ring so that the cysteine group lay between the N-terminal and the C-terminal ends of the synthetic peptide. This facilitated peptide conjugation with Keyhole Hemolymph (KHL).
For immunisation, two young adult rabbits (5-6 months old, weighing 5-6 lbs [2.3-2.7 kg]) were used. Each antigen (i.e., each synthetic peptide) was given subcutaneously and intramuscularly in 0.1 ml injections at ten different sites. The protocol used followed the following sequence:
The level of antibodies in the serum was established by ELISA (enzyme-linked immunosorbent assay) with the corresponding synthetic peptide antigen. This technique involved the following steps:
1. The antigen was diluted with a 0.1 M bicarbonate buffer (pH 9.0) to yield a 10 μg of antigen/ml solution. A volume of 50 μl of this solution was placed into each microwell of a 96 well plate.
2. The plates were covered and incubated at 37° C. for 3 hours.
3. The wells were washed with a coupling buffer and blocked using 200 μl of Pierce standard solution of BSA (bovine serum albumin).
4. 50 μl of dilutent BSA (0.75% soln.) was pipetted into each well. 50 μl of antibody serum sample diluted 1:100 in dilutent BSA were placed in lane A of each row.
5. 1:2 serial dilutions were performed moving down the plate.
6. The plates were covered and incubated at room temperature for 60 minutes.
7. The plates were washed four times with PBS wash solution.
8. A volume of 50 μl of goat anti-rabbit IgG (H&L) HRP conjugate at 1:1000 dilution in BSA was pipetted into each well and incubated at room temperature for 60 minutes (H&L=heavy and light chain; HRP=horseradish peroxidase).
9. The plates were washed four times with PBS wash solution.
10. A volume of 50 μl of substrate solution 2,2′-azino-bis(3-ethylbenzothiazoline-6-sulfonic acid)-diammonium salt (ABTS available from Pierce, which is used to help visualise the extent of the antibody/antigen reaction) was pipetted into each well and incubated at room temperature for about 2 minutes.
11. The reaction was stopped by adding 50 μl of 1% SDS (sodium dodecyl sulfate) into each well.
12. The wells were then read on a dynoplate reader at 405.
The data presented in Table 3 show the serum antibody titers against specific antibodies after the 10 week immunisation protocol.

[1] = tested on: beta-amyloid precursor protein; experiment: Ischemia-induced beta-amyloid precursor protein accumulation in rats, immunostaining with monoclonal antibodies; type: in vivo; parameters: Jonas C-terminal APP / Beringer- terminal APP / 511-608 APP ALZ 90 / Total: scale not given here; conditions: ischemic rats; for β-amyloid plaque level, overall result in words: summary of Table 4; for Jonas C-terminal APP: C-terminal end of precursor protein; for Total: sum of the three APP immunostaining levels
Source text: Ischemia was induced in rats in order to encourage the development of the beta-amyloid precursor proteins. The rats were then subjected to a variety of treatment regimes, and the degree of the beta-amyloid precursor protein presence was investigated. The general technique is described in “Complete cerebral ischemia with short-term survival in rats induced by cardiac arrest. I. Extracellular accumulation of Alzheimer's β-amyloid protein precursor in the brain.”, Pluta, R. et al, Brain Research 649 (1994) 323-328.
The treatment regime varied in terms of the length of time ischemia was induced, and the length of time treatment was applied.
The Colostrinin was obtained by conventional techniques, as described, for example, in WO98/14473. The peptides were produced using the method described in Example 1. The control was not subjected to any treatment.
Each column represents the results if the immunostaining with specific monoclonal antibodies directed against fragments of amyloid or its N and C precursor protein.

[2] = β-amyloid plaque level, immunostaining

Substance	Titre: (Serum Dilution) Post Immunization R1 (rabbits)	Titre: (Serum Dilution) Pre Immunization R1 (rabbits)	β-amyloid plaque level, overall result in words [1]	Beringer- terminal APP ([1]; β-amyloid plaque level, N-terminal end of precursor protein, immunostaining)	Jonas C-terminal APP [1, 2]	Total [1]	511-608 APP ALZ 90 ([1]; β-amyloid plaque level, 511-608 position of precursor protein, immunostaining)
ESYVPLFP [Peptide 5]	25600	0	particularly good results	2 and 4			
FLPVVN [Peptide 2]	12800	0					
LLYQEPV [Peptide 6]	25600	0					
LPLPLVRS [Peptide 10]	25600	0					
PKLKVEVPEP [Peptide 4]	25600	0					
PLPPTVMFPPQ [Peptide 8]	25600	0					
PVLPVEPFPF [Peptide 3]	12800	0	particularly good results		1 and 2		
PVVVPPFLQ [Peptide 9]	25600	0			3 and 2	8 and 5 and 6	
QPKVLPVPQ [Peptide 7]	25600	0			3	11 and 10 and 9	4 and 5
QPLLQVMMEPQ [Peptide 1]	12800	0	particularly good results		1 and 2		
